One assay concerns the target T1, bacteriorhodopsin (BR) (Halobacterium salinarum, UniProt P02945).
T1 sequence (P02945 14-262): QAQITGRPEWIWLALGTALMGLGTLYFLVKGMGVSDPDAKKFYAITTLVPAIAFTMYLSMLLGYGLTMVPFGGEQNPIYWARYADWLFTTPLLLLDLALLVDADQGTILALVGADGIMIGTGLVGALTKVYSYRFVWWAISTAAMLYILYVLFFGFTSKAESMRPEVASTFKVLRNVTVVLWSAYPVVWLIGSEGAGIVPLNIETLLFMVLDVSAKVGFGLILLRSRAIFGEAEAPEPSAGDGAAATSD
The assay can be described thus: FITC response to illumination of bacteriorhodopsin in the microsphere membrane (flow cytometry). Conditions: for Activity of BR within the microsphere (proton pumping): BR in lipid bilayer on mesoporous microspheres, illumination. Background: Flow cytometry measures light scatter and fluorescence of single cells or particles in a stream.

Assay [1] has as its system lipid bilayer of membrane-enclosed microspheres. It is filed as biochemical. The following applies: pH 7.4.
In a further assay the target is Human DAT protein (Homo sapiens, UniProt Q01959). Conditions: anticipated; [3H]DA uptake, 3 min at 34° C.
Human DAT protein, sequence (Q01959 whole entry): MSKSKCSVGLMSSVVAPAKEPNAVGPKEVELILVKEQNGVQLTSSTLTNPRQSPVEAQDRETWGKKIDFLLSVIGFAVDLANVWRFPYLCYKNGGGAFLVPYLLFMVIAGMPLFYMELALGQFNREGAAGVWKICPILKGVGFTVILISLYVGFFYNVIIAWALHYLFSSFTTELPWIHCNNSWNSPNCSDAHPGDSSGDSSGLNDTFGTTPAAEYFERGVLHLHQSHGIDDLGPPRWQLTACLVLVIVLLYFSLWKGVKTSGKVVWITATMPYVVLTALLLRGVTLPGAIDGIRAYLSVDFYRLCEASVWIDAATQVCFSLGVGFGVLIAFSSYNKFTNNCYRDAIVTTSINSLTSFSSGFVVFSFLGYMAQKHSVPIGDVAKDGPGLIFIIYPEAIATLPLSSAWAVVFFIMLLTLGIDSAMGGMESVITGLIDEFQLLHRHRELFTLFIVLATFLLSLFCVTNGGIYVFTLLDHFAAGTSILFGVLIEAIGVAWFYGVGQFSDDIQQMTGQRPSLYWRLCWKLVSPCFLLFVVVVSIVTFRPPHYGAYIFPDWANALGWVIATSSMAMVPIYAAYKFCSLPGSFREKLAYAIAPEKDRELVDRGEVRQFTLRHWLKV

Description for bacteriorhodopsin (BR): The next investigation was to determine whether a integral membrane protein, bacteriorhodopsin (BR) retained its activity and effect a change on the contents of the microporous microsphere. The natural activity of bacteriorhodpsin is to increase the proton concentration (i.e. pH) upon illumination with the appropriate wavelength of light (ca 510 nm).
The microspheres were then enveloped with liposomes containing 0.1-5% reconstituted bacteriorhodpsin-containing “purple membrane” from Halobacterium salinarum, in egg phosphatidyl choline.

For the molecule `O=[N+]([O-])[O-].O=[N+]([O-])[O-].O=[N+]([O-])[O-].[Gd+3]` [Gd(NO3)3, reference compound], on bacteriorhodopsin (BR) (3 μM Gd(NO3)3), the “Effect on BR” value is recorded as “inhibitor of BR”.

On to α-hemolysin, for which the “Change in Mag-Fluo-4 fluorescence intensity (mean channel fluorescence)” value in assay [1] is listed as “increase in fluorescence intensity”.

On to `NCCc1ccc(O)c(O)c1` [dopamine], for which the Vmax at Human DAT protein was 9.0 pmol/10^5 cells/min.

B1: BR: integral membrane protein, light driven proton pump; purple membrane from Halobacterium salinarum (protein, UniProt P02945 14-262, looked up)
Bacteriorhodopsin: T1 sequence (P02945 14-262)
Regarding B1, the “FITC intensity after several minutes of illumination” value in the assay with bacteriorhodopsin (BR) (0.1-5% BR purple membrane in egg phosphatidyl choline, white light) is given as “decreased”. In addition, the “Activity of BR within the microsphere (proton pumping)” value with bacteriorhodopsin (BR) is “active”; with bacteriorhodopsin (BR) (listed as bacteriorhodopsin) it was “photo-induced proton pumping”.
